The values below come from the OligoGym collection.

The target of series [1] is ANGPTL2. As to conditions: ASO.
The target of series [2] is MYH7. As to conditions: ASO, CC-2580, 5 µM.

Where “and” joins values, the source holds several entries; their conditions need not be identical. Equal values may be shown once. After the bases stand the sugars from the 5' end (letter, count) and the backbone: PS all phosphorothioate, else s phosphorothioate and o phosphodiester by linkage. Methylation of C is not given here. l = locked nucleic acid (LNA); d = 2'-deoxy (DNA)

As to “ATGAAGTCAGTCAGAGCCT (sugars l1 d16 l2, PS)”, the target mRNA inhibition in series [1] (5 µM) is 27.6%; in series [1] (25 µM) it was 22.6%.

With “ATGATGCGGTTGTAGGT (sugars l2 d13 l2, PS)”, the target mRNA inhibition in series [1] (5 µM) is 57.5%.

Consider “ATTTACTGTCTGCCCAG (sugars l2 d12 l3, PS)”, for which the target mRNA inhibition in series [1] (5 µM) came out at 54.6%; in series [1] (25 µM), 59.5%.

“ATTTTGAGATTCCCCCAA (sugars l1 d14 l3, PS)”: the target mRNA inhibition in series [1] (5 µM) was determined as 3.44%; in series [1] (25 µM), 20.9%.

Consider “CAGAACAATGGGGAGGA (sugars l3 d12 l2, PS)”, for which the target mRNA inhibition worked out at 58.5% in series [1] (5 µM) and 51.1% in series [1] (25 µM).

For “CAGCTCATTGTTGAGCAG (sugars l2 d14 l2, PS)”, the target mRNA inhibition in series [1] (5 µM) was -19%; in series [1] (25 µM), 7.91%.

For the sequence “CAGCTTGGCGATGATCT (sugars l2 d6 l1 d5 l3, PS)”, in series [2], the target mRNA inhibition was 7% and -9%.

As for “CAGCTTGGCGATGATCT (sugars l2 d8 l3 d2 l2, PS)”, the target mRNA inhibition in series [2] was 39% and 30%.

In the case of “CAGCTTGGCGATGATCT (sugars l2 d10 l1 d2 l2, PS)”, the target mRNA inhibition in series [2] was 64% and 43%.

Regarding CAGCTTGGCGATGATCT (sugars l4 d9 l4, PS), the target mRNA inhibition in series [2] was 27% and 4%.

Regarding “CAGCTTGGCGATGATCT (sugars lddlddddddddlddll, PS)”, the target mRNA inhibition in series [2] was 35% and 18%.

Consider “CAGCTTGGCGATGATCT (sugars lddldddddddldddll, PS)”, for which the target mRNA inhibition in series [2] was -4% and -11%.

For “CAGCTTGGCGATGATCT (sugars lddldddddddldllll, PS)”, in series [2], the target mRNA inhibition was 7% and -16%.

With “CAGCTTGGCGATGATCT (sugars lddlddddddldlldll, PS)”, the target mRNA inhibition in series [2] was 21% and 13%.

With “CAGCTTGGCGATGATCT (sugars lddlddddddlllddll, PS)”, the target mRNA inhibition in series [2] is -30%.

Take “CAGCTTGGCGATGATCT (sugars lddlddldddddldlll, PS)”: in series [2], the target mRNA inhibition is -32% and -42%.

Regarding “CAGCTTGGCGATGATCT (sugars lddlddldlldddddll, PS)”, in series [2], the target mRNA inhibition is -27% and -45%.

Turning to “CAGCTTGGCGATGATCT (sugars lddldlddlldddddll, PS)”, the target mRNA inhibition in series [2] was 13% and 3%.

Consider “CAGCTTGGCGATGATCT (sugars lddlldddddddldlll, PS)”, for which the target mRNA inhibition in series [2] was 4% and -21%.

As for “CAGCTTGGCGATGATCT (sugars lddllddddddllddll, PS)”, in series [2], the target mRNA inhibition is 9% and -10%.

As for “CAGCTTGGCGATGATCT (sugars lddlldddldddddlll, PS)”, the target mRNA inhibition in series [2] is 1% and -8%.

Consider “CAGCTTGGCGATGATCT (sugars lddlldldlddddddll, PS)”, for which, in series [2], the target mRNA inhibition is 9% and -15%.

As to “CAGCTTGGCGATGATCT (sugars ldldddddddlddldll, PS)”, the target mRNA inhibition in series [2] is 39% and 27%.

Take “CAGCTTGGCGATGATCT (sugars ldldddddddllddlll, PS)”: the target mRNA inhibition in series [2] was 46% and 28%.

For the sequence “CAGCTTGGCGATGATCT (sugars ldlddlddddddlddll, PS)”, in series [2], the target mRNA inhibition was 47% and 25%.

In the case of “CAGCTTGGCGATGATCT (sugars ldldlddddddldldll, PS)”, the target mRNA inhibition in series [2] is 5% and -12%.

For the sequence “CAGCTTGGCGATGATCT (sugars ldldlddddddllddll, PS)”, the target mRNA inhibition in series [2] was 26% and 7%.

As for “CAGCTTGGCGATGATCT (sugars ldldlddlddddddlll, PS)”, the target mRNA inhibition in series [2] was 18% and 3%.

With “CAGCTTGGCGATGATCT (sugars ldldllddlddddddll, PS)”, the target mRNA inhibition in series [2] was -17% and -29%.

For “CAGCTTGGCGATGATCT (sugars ldllldddddlddddll, PS)”, in series [2], the target mRNA inhibition is 49% and 30%.

In the case of “CAGCTTGGCGATGATCT (sugars lldddddddddldldll, PS)”, the target mRNA inhibition in series [2] is 40% and 22%.

Take “CAGCTTGGCGATGATCT (sugars llddddddddldlddll, PS)”: the target mRNA inhibition in series [2] is 26% and 5%.

Take “CAGCTTGGCGATGATCT (sugars llddddddddldldlll, PS)”: the target mRNA inhibition in series [2] is 32% and 17%.

Consider “CAGCTTGGCGATGATCT (sugars lldddddddlldlddll, PS)”, for which the target mRNA inhibition in series [2] is 21% and 29%.

Regarding “CAGCTTGGCGATGATCT (sugars lldddldddddldldll, PS)”, the target mRNA inhibition in series [2] was 25% and 16%.

With “CAGCTTGGCGATGATCT (sugars llddlddddddldldll, PS)”, the target mRNA inhibition in series [2] was 18% and 3%.

Turning to “CAGCTTGGCGATGATCT (sugars lllddddddddldldll, PS)”, the target mRNA inhibition in series [2] was 28% and 6%.

“CAGGCACACTAATGAGA (sugars l2 d12 l3, PS)”: the target mRNA inhibition in series [1] (5 µM) came to 9.64%; in series [1] (25 µM) it was 9.52%.

On to “CAGGCCAACACTAACTCG (sugars l1 d14 l3, PS)”, for which the results for the target mRNA inhibition in series [1] (5 µM) and in series [1] (25 µM) were 73.4% and 84.2%, respectively.

Consider “CAGGCGTCTCTGGATGA (sugars l1 d14 l2, PS)”, for which the target mRNA inhibition in series [1] (5 µM) stood at 17.4%; in series [1] (25 µM) it was 10.6%.

Regarding “CATTTTGAGATTCCCCC (sugars l1 d14 l2, PS)”, the figures for the target mRNA inhibition in series [1] (5 µM) and in series [1] (25 µM) were 27.1% and 14%, respectively.

Consider CCAAGGGCACGTTTTA (sugars l2 d12 l2, PS), for which the target mRNA inhibition is -4% in series [1] (5 µM) and 13.2% in series [1] (25 µM).

For “CCAGTTCCTGAAGAAGTT (sugars l2 d14 l2, PS)”, the target mRNA inhibition in series [1] (5 µM) was determined as 16.3%; in series [1] (25 µM) it was 16.7%.

Take “CCTTGCAAAATGGTGGTT (sugars l2 d14 l2, PS)”: the figures for the target mRNA inhibition in series [1] (5 µM) and in series [1] (25 µM) were 49.6% and 57.4%, respectively.

Regarding CTCCGGTAATGGCCCC (sugars l1 d12 l3, PS), the target mRNA inhibition in series [1] (5 µM) turned out to be 28.6%; in series [1] (25 µM), 25.4%.

Take CTTAATGGGCAGTAATA (sugars l4 d9 l4, PS): the target mRNA inhibition is 32.6% in series [1] (5 µM) and 42.3% in series [1] (25 µM).

For “CTTGGCAATGATCTCATCC (sugars l3 d12 l4, PS)”, the target mRNA inhibition in series [2] is 89% and 66%.

As for “CTTGGCAATGATCTCATCC (sugars l4 d11 l4, PS)”, in series [2], the target mRNA inhibition was 61% and 50%.

In the case of “CTTGGCAATGATCTCATCC (sugars l4 d13 l2, PS)”, in series [2], the target mRNA inhibition was 60% and 45%.

“CTTGGCAATGATCTCATCC (sugars lddlddddddddlddldll, PS)”: the target mRNA inhibition in series [2] was 59% and 39%.

Regarding “CTTGGCAATGATCTCATCC (sugars ldldddddddddlddldll, PS)”, in series [2], the target mRNA inhibition is 68% and 43%.

Take “CTTGGCAATGATCTCATCC (sugars lldddddddldddlddlll, PS)”: in series [2], the target mRNA inhibition was 54% and 31%.

In the case of “CTTGGCAATGATCTCATCC (sugars lldldddddddldldldll, PS)”, the target mRNA inhibition in series [2] was 39% and 26%.

Take “CTTGGCAATGATCTCATCC (sugars lldlddddddlddldldll, PS)”: in series [2], the target mRNA inhibition was 1%.

Turning to “CTTGGCAATGATCTCATCC (sugars lldldldddddddldldll, PS)”, in series [2], the target mRNA inhibition was 16% and -4%.

Take “CTTGGCAATGATCTCATCC (sugars llldddddddlddldldll, PS)”: in series [2], the target mRNA inhibition was 60% and 35%.

With “GAACCTCAATATCCTGC (sugars l1 d13 l3, PS)”, the results for the target mRNA inhibition in series [1] (5 µM) and in series [1] (25 µM) were 62.6% and 72.6%, respectively.

“GAACTCAGCCCAGTAGA (sugars l1 d14 l2, PS)”: the target mRNA inhibition stood at 1.82% in series [1] (5 µM) and 15.7% in series [1] (25 µM).

“GACTAACTGTTGAAATTG (sugars l3 d11 l4, PS)”: the target mRNA inhibition in series [1] (5 µM) worked out at 26.9%; in series [1] (25 µM) it was 30.8%.

For the sequence GAGTTCATGTTGCGGC (sugars l1 d13 l2, PS), the target mRNA inhibition in series [1] (5 µM) turned out to be 21.4%; in series [1] (25 µM), 24.9%.

Take GATGATGCGGTTGTAG (sugars l4 d10 l2, PS): the figures for the target mRNA inhibition in series [1] (5 µM) and in series [1] (25 µM) were 70% and 75.2%, respectively.

As for “GCAGCTCATTGTTGAGC (sugars l1 d14 l2, PS)”, the target mRNA inhibition in series [1] (5 µM) was 8.7%.

For the sequence “GCAGTTATCACACCACA (sugars l1 d13 l3, PS)”, the target mRNA inhibition came out at 38.9% in series [1] (5 µM) and 44% in series [1] (25 µM).

Regarding “GCTCATTGTTGAGCAGC (sugars l1 d14 l2, PS)”, the target mRNA inhibition is -2.2% in series [1] (5 µM) and 3.15% in series [1] (25 µM).

For “GTATTGTGAGGAGTTTC (sugars l4 d11 l2, PS)”, the target mRNA inhibition was found to be 80% in series [1] (5 µM) and 84.3% in series [1] (25 µM).

On to “GTGGGCAGGAGAAGGGAC (sugars l1 d15 l2, PS)”, for which the target mRNA inhibition in series [1] (5 µM) was 17.8%; in series [1] (25 µM) it was -18.2%.

In the case of “GTTGATGATGCGGTTGTA (sugars l1 d15 l2, PS)”, the results for the target mRNA inhibition in series [1] (5 µM) and in series [1] (25 µM) were 44.2% and 53.9%, respectively.

Consider “TATTAGCATCACTACTTT (sugars l4 d11 l3, PS)”, for which the target mRNA inhibition in series [1] (5 µM) was found to be 48%; in series [1] (25 µM), 52.1%.

For the sequence “TCAGCTTGGCGATGATCT (sugars l2 d9 l1 d2 l4, PS)”, the target mRNA inhibition in series [2] was 31% and 40%.

Regarding “TCAGCTTGGCGATGATCT (sugars l2 d14 l2, PS)”, the target mRNA inhibition in series [2] is 56% and 33%.

Consider “TCAGCTTGGCGATGATCT (sugars lddldddddddlddllll, PS)”, for which, in series [2], the target mRNA inhibition was 43% and 45%.

On to “TCCAAGGCACTCTATGAT (sugars l2 d14 l2, PS)”, for which the figures for the target mRNA inhibition in series [1] (5 µM) and in series [1] (25 µM) were 13.8% and 27.7%, respectively.

“TGACCCCTGATTATTCA (sugars l1 d13 l3, PS)”: the target mRNA inhibition in series [1] (5 µM) turned out to be 7.55%; in series [1] (25 µM), 4.06%.

With “TGATGATGCGGTTGTAG (sugars l3 d12 l2, PS)”, the target mRNA inhibition in series [1] (5 µM) was 64.2%; in series [1] (25 µM), 70.3%.

In the case of “TGGTTGATGATGCGGTTGTA (sugars l1 d17 l2, PS)”, the target mRNA inhibition amounted to 48% in series [1] (5 µM) and 53% in series [1] (25 µM).

In the case of “TTATAAACTCCTTGCTCTA (sugars l1 d14 l4, PS)”, the target mRNA inhibition in series [1] (5 µM) is 33.2%; in series [1] (25 µM) it was 42.4%.

With “TTGACAGGGATTAGGCA (sugars l1 d13 l3, PS)”, the target mRNA inhibition in series [1] (5 µM) worked out at 11.6%; in series [1] (25 µM), 23.9%.

With “TTTTGAGATTCCCCCAAA (sugars l1 d13 l4, PS)”, the target mRNA inhibition in series [1] (5 µM) turned out to be 24.8%; in series [1] (25 µM) it was 24.7%.
